Results on two compounds are retold here after patent US11090267B2, “Rapidly degrading embolic particles with therapeutic agent release” (priority 2014, dated 2021).

The nature of the data set: incubation in water at 37° C., crystal form conversion (micrographs). In kind it is physicochemical.

In the case of `CC(=O)O[C@H]1C(=O)[C@@]2(C)[C@H]([C@H](OC(=O)c3ccccc3)[C@]3(O)C[C@H](OC(=O)[C@H](O)[C@@H](NC(=O)c4ccccc4)c4ccccc4)C(C)=C1C3(C)C)[C@]1(OC(C)=O)CO[C@@H]1C[C@@H]2O` [amorphous paclitaxel, paclitaxel], the “conversion to dihydrate crystals upon incubation in water” value (amorphous paclitaxel microparticles dispersed in PLGA matrix, water at 37C, FIG. 4) is given as “coalesce within hours into large, needle-like dihydrate crystals”.
`CC(=O)O[C@H]1C(=O)[C@@]2(C)[C@H]([C@H](OC(=O)c3ccccc3)[C@]3(O)C[C@H](OC(=O)[C@H](O)[C@@H](NC(=O)c4ccccc4)c4ccccc4)C(C)=C1C3(C)C)[C@]1(OC(C)=O)CO[C@@H]1C[C@@H]2O` [crystalline anhydrous paclitaxel, paclitaxel]: the “conversion to dihydrate crystals upon incubation in water” value (as-received powder dispersed in water at 37° C., FIGS. 5 and 6) was “coalesce within hours to large needle-like dihydrate crystals”.
